Where two headings read alike, the source gives them in different places.
Target: PKM2 (Homo sapiens, UniProt P14618)
Assay: PKM2 activation biochemical assay (AC50 / max. response vs fructose 1,6-bisphosphate)
Details: for Max. Resp. (%): % maximum response in a biochemical assay as compared with Fructose 1,6-bisphosphate
[1] = biochemical assay, read-out: PKM2 AC50

Chain of PKM2 (P14618 whole entry): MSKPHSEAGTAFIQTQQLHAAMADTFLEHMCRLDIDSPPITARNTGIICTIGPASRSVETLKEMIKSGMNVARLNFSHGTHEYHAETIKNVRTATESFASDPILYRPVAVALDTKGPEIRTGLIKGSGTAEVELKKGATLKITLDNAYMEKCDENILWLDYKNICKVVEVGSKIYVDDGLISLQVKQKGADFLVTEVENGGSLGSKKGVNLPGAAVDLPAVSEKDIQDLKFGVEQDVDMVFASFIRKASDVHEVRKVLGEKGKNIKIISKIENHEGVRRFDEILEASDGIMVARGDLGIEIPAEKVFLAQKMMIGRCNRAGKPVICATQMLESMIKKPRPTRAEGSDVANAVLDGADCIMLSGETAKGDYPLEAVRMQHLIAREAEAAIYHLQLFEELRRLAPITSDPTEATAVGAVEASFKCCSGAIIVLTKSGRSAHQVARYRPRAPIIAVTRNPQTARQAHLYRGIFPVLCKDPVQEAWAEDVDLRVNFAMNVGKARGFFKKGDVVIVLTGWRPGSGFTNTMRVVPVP

Compound | AC50 [1] [µM] | Max. Resp. (%) | AC50 [µM]
Cn1cc(C(=O)c2cccc(Cl)c2Cl)cc1C(N)=O [CA2] | 17 | – | –
Cn1cc(C(=O)c2cccc(Cl)c2Cl)cc1C(=O)NCNC(=O)c1cc(C(=O)c2cccc(Cl)c2Cl)cn1C [CA4] | 0.0032 | – | –
Cn1cc(C(=O)c2cccc(Cl)c2Cl)cc1C(=O)NCCNC(=O)c1cc(C(=O)c2cccc(Cl)c2Cl)cn1C [CA5] | 0.014 | – | –
O=C(c1cc(C(F)(F)F)n[nH]1)N(Cc1ccc(O)cc1F)CC1CCC1 [Compound 1] | – | 100 | –
N#Cc1cc(C(=O)N(Cc2ccc(O)cc2F)CC2CCC2)[nH]n1 [Compound 2] | – | 39 | 3.79
Nc1cc(C(=O)N(Cc2ccc(O)cc2F)CC2CCC2)[nH]n1 [Compound 3] | 43.8 | 45 | –
CC(c1ccccc1)N(CC1CCC1)C(=O)c1cc(N)n[nH]1 (centres unmarked) [Compound 4] | 1.48 | 52 | –
CC(c1ccccc1)N(CC1CCC1)C(=O)c1cc(C(F)(F)F)n[nH]1 (centres unmarked) [Compound 5] | 4.65 | 106 | –
O=C(c1cc(C(F)(F)F)n[nH]1)N(Cc1cccc2[nH]ccc12)CC1CCC1 [Compound 6] | – | 100 | –
O=C(c1cc(C(F)(F)F)n[nH]1)N(Cc1cccc2[nH]c(=O)sc12)CC1CCC1 [Compound 7] | 3.45 | 87 | –
O=C(c1cc(Cl)n[nH]1)N(Cc1cccc2[nH]c(=O)sc12)CC1CCC1 [Compound 9] | 15.4 | 80 | –
O=C(c1cc(Br)n[nH]1)N(Cc1cccc2[nH]c(=O)sc12)CC1CCC1 [Compound 10] | 2.74 | 127 | –
O=C(c1cc(Br)n[nH]1)N(Cc1ccc(O)cc1F)CC1CNC1 [Compound 11] | – | 61 | 10.4
O=C(c1cc(C(F)(F)F)n[nH]1)N(Cc1cccc2[nH]ccc12)CC1COC1 [Compound 12] | 3.27 | 101 | –
CC(C)(C)CN(Cc1cccc2[nH]ccc12)C(=O)c1cc(C(F)(F)F)n[nH]1 [Compound 13] | 49.1 | 33 | –
O=C(c1cc(C(F)(F)F)n[nH]1)N(Cc1cccc2c1CCN2)CC1CCC1 [Compound 14] | – | 81 | –
O=C(c1cc(C(F)(F)F)n[nH]1)N(Cc1ccc(O)cc1F)CC1COC1 [Compound 15] | 0.15 | 102 | –

Compound | AC50 [1] [µM] | Max. Resp. (%) | AC50 [µM]
CCCC(C)N(Cc1ccccc1)C(=O)c1cc(C(F)(F)F)n[nH]1 (centres unmarked) [Compound 16] | 74.8 | 22 | –
CCCCCN(Cc1ccccc1F)C(=O)c1cc(C(F)(F)F)n[nH]1 [Compound 17] | 0.138 | 83 | –
CCCCCN(Cc1ccccc1)C(=O)c1cc(C(F)(F)F)n[nH]1 [Compound 19] | 0.92 | 76 | –
O=C(c1cc(C(F)(F)F)n[nH]1)N(Cc1ccccc1F)CC1COC1 [Compound 20] | 12 | 70 | –
O=C(c1cc(C(F)(F)F)n[nH]1)N(Cc1ccc(O)cc1F)C1CCOCC1 [Compound 21] | > 10 | – | –
O=C(c1cc(C(F)(F)F)n[nH]1)N(Cc1ccccc1F)C1CCOCC1 [Compound 22] | 1.52 | 99 | –
COCCCN(Cc1ccccc1F)C(=O)c1cc(C(F)(F)F)n[nH]1 [Compound 23] | 7.54 | 75 | –
CCOCCN(Cc1ccc(O)cc1F)C(=O)c1cc(C(F)(F)F)n[nH]1 [Compound 24] | 0.21 | 100 | –
O=C(c1cc(C(F)(F)F)n[nH]1)N(Cc1ccccc1F)c1ncco1 [Compound 25] | 53 | 35 | –
O=C(c1cc(C(F)(F)F)n[nH]1)N(CCC1CCOC1)Cc1ccccc1F (centres unmarked) [Compound 26] | 0.377 | 99 | –
O=C(c1cc(C(F)(F)F)n[nH]1)N(Cc1ccccc1Cl)CC1COC1 [Compound 27] | – | 47 | 33
CCOCCN(Cc1ccccc1Cl)C(=O)c1cc(C(F)(F)F)n[nH]1 [Compound 29] | – | 87 | –
CCOCCN(Cc1ccccc1F)C(=O)c1cc(C(F)(F)F)n[nH]1 [Compound 30] | – | 72 | –
COCCCN(Cc1ccccc1Cl)C(=O)c1cc(C(F)(F)F)n[nH]1 [Compound 31] | 9.59 | 82 | –
O=C(c1cc(C(F)(F)F)n[nH]1)N(CCC1CCOCC1)Cc1ccccc1Cl [Compound 32] | 1 | 107 | –
O=C(c1cc(C(F)(F)F)n[nH]1)N(CCC1CCOC1)Cc1c(Cl)cccc1Cl (centres unmarked) [Compound 33] | 4.03 | 81 | –
O=C(c1cc(C(F)(F)F)n[nH]1)N(CCC1CCOC1)Cc1ccc(O)cc1F (centres unmarked) [Compound 34] | 0.077 | 109 | –
